Data published in ChEMBL document CHEMBL1201862, “PubChem BioAssay data set” (2004).
The source made the active and inactive calls.

Assays:
Escherichia coli = assay: microbe, parasite or virus in culture
[1] = test system: Streptococcus sp. 'group A'; assay: Streptococcus pyogenes SK(-)GAS viability under kanamycin – luminescence, BacTiterGlo, confirmation, counter-screen for streptokinase expression inhibitor project, dose response (AID 1900); assay type: functional, organism-based
BJ [2] = assay: cells; assay type: functional, cell-based; conditions: Homo sapiens
[3] = microbe, parasite or virus in culture; assay type: functional; conditions: Mycobacterium tuberculosis
BJ [4] = assay: BJ-TERT fibroblast viability loss – cell-based, RAS-independent, luminescence, dose response (AID 1933); assay type: functional; conditions: Homo sapiens
Streptococcus = assay: GAS UMAA2166 growth inhibition – luminescence, BacTiterGlo, counter-screen for streptokinase expression inhibitor project, dose response (AID 1915); assay type: functional, organism-based;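 further: potency for reduction of bacterial viability or growth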
BJ [5] = assay: BJ-TERT-LT-ST fibroblast viability loss – cell-based, RAS-independent, luminescence, dose response (AID 1935); assay type: functional; conditions: Homo sapiens;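 further: BJ fibroblasts immortalized with TERT plus LT and ST oncogenes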
[6] = DRD fibroblast viability loss – cell-based, non-viral oncogenic, luminescence, dose response (AID 1934); assay type: functional; conditions: Homo sapiens
BJ [7] = assay: growth inhibition of engineered Ras-driven BJ cells – cell-based, alamar blue fluorescence, cherrypicked samples, dose response (AID 2631); assay type: functional; conditions: Homo sapiens;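 further: confirmatory dose-response assay in RAS-dependent BJ fibroblasts engineered with TERT, LT and ST, with cytotoxicity read by fluorescence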
CHO = CHO cell viability loss, potency – luminescence, cytotoxicity control for TLR9-MyD88 binding inhibitor project, dose response (AID 588339); assay type: functional, cell-based, hamster; conditions: Cricetulus griseus;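 further: CHO cells stably coexpressing TLR9 and MyD88 fusions from primary screen; compound exposure lasted 48 hours before viability readout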
Cysteine protease ATG4B = molecular target: T1, Cysteine protease ATG4B (Homo sapiens, UniProt Q9Y4P1); assay type: functional;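 further: Fluorescence-based dose-response confirmation assay measuring inhibition of ATG4B activity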
T1 sequence (Q9Y4P1 whole entry): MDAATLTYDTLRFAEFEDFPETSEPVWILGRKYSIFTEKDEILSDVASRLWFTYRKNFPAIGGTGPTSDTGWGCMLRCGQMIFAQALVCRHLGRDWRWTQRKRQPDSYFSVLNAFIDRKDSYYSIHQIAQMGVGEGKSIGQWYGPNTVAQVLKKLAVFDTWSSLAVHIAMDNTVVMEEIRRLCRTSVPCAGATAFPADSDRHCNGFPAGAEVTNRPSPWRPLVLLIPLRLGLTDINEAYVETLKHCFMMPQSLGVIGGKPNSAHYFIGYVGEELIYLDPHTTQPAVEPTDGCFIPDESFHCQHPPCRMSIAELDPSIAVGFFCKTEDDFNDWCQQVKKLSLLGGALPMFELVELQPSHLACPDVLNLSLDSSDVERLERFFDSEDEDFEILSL

Phospholipase A2 = Phospholipase A2 (Homo sapiens, UniProt P04054); assay type: functional;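 further: confirmatory dose-response counterscreen on phospholipase A2, testing hits that came from an ultra-high-throughput screen for ATG4B inhibitors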
[8] = Trypanosoma cruzi growth suppression in host cells – NIH3T3 host cells, beta-gal luminescence, confirmation (AID 2044); assay type: functional, cell-based;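 further: intracellular parasites grown in NIH/3T3 mouse fibroblasts as host cells; luminescent beta-galactosidase reporter signal from transgenic T. cruzi replicating inside host cells; inhibitors lower the luminescence signal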
[9] = molecular target: Nucleotide-binding oligomerization domain-containing protein 2 (Homo sapiens, UniProt Q9HC29); assay: inhibition of NOD2-driven NF-kB reporter – cell-based, luminescence, uHTS, HEK293 (AID 1566); assay type: functional
HEK293 [10] = assay: cells; assay type: functional, cell-based; conditions: Homo sapiens
HEK293 [11] = assay: NOD2 signaling inhibitors in MDP-stimulated cells, cell-based, uHTS, luminescence (AID 2001); assay type: functional; conditions: Homo sapiens
HEK293 [12] = assay: inhibition of NOD1-driven NF-kB reporter – cell-based, luminescence, uHTS, primary screen (AID 1578); assay type: functional; conditions: Homo sapiens
HEK293 [13] = assay: cells; assay type: functional, cell-based; conditions: Homo sapiens; remark: listed apart in the source
HEK293 [14] = assay: cells; assay type: functional, cell-based; conditions: Homo sapiens; remark: listed apart in the source
[15] = molecular target: Induced myeloid leukemia cell differentiation protein Mcl-1 (Homo sapiens, UniProt Q07820); assay type: functional
[16] = molecular target: T2, Nuclear receptor subfamily 0 group B member 1 (Homo sapiens, UniProt P51843); assay: Luminescence-based cell-based high throughput dose response assay for inhibitors of the orphan nuclear receptor subfamily 0, group B, member 1 (DAX1; NR0B1). [Related pubchem assays (depositor defined):AID504766, AID504790]; assay type: functional
T2 sequence (P51843 whole entry): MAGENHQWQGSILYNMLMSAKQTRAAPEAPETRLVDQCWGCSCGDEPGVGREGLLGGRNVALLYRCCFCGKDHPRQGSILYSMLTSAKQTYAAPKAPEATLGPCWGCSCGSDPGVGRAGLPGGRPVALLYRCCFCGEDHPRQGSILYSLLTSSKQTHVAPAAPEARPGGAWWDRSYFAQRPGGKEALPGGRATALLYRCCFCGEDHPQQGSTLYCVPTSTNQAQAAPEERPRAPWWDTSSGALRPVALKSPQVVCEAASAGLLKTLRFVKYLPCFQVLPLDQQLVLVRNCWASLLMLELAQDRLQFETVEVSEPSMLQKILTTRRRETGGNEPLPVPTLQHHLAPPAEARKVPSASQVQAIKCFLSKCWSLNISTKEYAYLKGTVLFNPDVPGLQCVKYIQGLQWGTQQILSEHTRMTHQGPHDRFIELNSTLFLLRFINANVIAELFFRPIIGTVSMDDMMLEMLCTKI

HEK293 [17] = assay: cells; assay type: functional, cell-based; conditions: Homo sapiens; remark: listed apart in the source
[18] = molecular target: T3, Rac GTPase-activating protein 1 (Homo sapiens, UniProt Q9H0H5); assay: blockers of MgcRacGAP-driven Rac1 GTP hydrolysis – biochemical, ADP Hunter fluorescence, primary and confirmatory, confirmation (AID 624330); assay type: functional
T3 sequence (Q9H0H5 whole entry): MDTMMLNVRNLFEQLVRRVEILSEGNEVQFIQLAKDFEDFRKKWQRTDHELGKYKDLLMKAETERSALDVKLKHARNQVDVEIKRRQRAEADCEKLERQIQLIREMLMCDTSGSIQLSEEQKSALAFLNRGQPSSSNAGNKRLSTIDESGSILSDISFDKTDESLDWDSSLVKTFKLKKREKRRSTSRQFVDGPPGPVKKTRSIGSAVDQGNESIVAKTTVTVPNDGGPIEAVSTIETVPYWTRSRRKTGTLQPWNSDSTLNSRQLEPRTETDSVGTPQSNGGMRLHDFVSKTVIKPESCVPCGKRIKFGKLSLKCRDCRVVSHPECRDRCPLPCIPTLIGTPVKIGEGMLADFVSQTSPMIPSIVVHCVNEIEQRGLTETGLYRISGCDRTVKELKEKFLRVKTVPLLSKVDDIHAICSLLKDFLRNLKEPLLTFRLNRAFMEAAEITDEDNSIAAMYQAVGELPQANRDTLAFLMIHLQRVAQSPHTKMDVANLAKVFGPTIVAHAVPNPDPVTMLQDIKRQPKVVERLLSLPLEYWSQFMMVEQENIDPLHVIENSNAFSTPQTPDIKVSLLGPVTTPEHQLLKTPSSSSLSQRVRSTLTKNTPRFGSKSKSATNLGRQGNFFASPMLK

[19] = viability loss in HeLa cells – cytotoxicity control for MgcRacGAP inhibitor project, dose response (AID 624300); assay type: functional
[20] = blockers of CRF-binding protein–CRF-R2 complex – cell-based, uHTS hits, 384-well, dose response (AID 651639); assay type: functional, Homo sapiens; conditions: read-out: IC50_Mean
[21] = molecular target: T4, Corticotropin-releasing factor receptor 2/Corticotropin-releasing factor-binding protein (Homo sapiens, UniProt P24387+Q13324); assay: Dose Response confirmation of uHTS hits for small molecule antagonists of the CRF-binding protein and CRF-R2 receptor complex.; assay type: functional; conditions: read-out: IC50_Mean
T4 sequence (Q13324 whole entry): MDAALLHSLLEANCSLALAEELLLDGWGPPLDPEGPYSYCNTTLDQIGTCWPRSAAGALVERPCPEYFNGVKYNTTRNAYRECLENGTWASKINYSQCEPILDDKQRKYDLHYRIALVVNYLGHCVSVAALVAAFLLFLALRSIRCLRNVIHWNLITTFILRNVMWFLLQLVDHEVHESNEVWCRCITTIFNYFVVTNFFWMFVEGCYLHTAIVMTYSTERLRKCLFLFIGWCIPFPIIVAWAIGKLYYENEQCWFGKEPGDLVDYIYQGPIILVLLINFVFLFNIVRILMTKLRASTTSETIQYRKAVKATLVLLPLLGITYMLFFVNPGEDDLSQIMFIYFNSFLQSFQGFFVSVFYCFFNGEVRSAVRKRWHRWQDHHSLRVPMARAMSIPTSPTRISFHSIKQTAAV
T4 sequence (P24387 whole entry): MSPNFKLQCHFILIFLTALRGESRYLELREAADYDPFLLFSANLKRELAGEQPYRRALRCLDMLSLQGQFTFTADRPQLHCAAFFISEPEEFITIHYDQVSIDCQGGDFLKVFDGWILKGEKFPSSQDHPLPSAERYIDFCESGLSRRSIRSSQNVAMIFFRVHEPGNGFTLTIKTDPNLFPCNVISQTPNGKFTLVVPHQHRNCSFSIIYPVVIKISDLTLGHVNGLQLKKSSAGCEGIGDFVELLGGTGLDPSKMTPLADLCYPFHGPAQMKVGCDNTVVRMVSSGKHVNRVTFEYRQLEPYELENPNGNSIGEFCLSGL

[22] = molecular target: T4, Corticotropin-releasing factor receptor 2/Corticotropin-releasing factor-binding protein; assay: activators of CRF receptor 2 with binding protein – uHTS hits, confirmation (AID 602473); assay type: functional; conditions: read-out: EC50_Mean
[23] = HIV-1 Vif–A3G interaction blockers – biochemical, TR-FRET, GST-Vif 1-94, biotin-A3G peptide, dose response retest, primary screen (AID 1117319); assay type: functional;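 further: TR-FRET signal of purified GST-Vif binding a biotinylated A3G peptide; inhibitors lower the FRET signal by blocking Vif and A3G binding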
Protein Tat = molecular target: T5, Protein Tat (Human immunodeficiency virus type 1 group M subtype B (isolate HXB2)(HIV-1), UniProt P04608); assay type: functional;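 further: tat binding to TAR RNA read out by fluorescence polarization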
T5 sequence (P04608 whole entry): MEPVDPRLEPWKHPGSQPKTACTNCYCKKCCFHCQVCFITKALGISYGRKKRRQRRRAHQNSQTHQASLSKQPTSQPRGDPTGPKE

[24] = Luminescence Cell-Based Dose Response HTS to Identify Inhibitors of 5'UTR Stem-Loop Driven Prion Protein mRNA Translation in H4 Neuroglioblastoma Cells. [Related pubchem assays: 1827 (Project Summary), 1813 (Primary HTS)]; assay type: functional
[25] = luciferase reporter signal suppression in cells – H4 neuroglioma cells, luminescence, dose response (AID 1990); assay type: functional, cell-based
[26] = alpha-synuclein stem-loop luciferase translation blockers – H4 neuroglioma cells, luminescence, confirmation (AID 1988); assay type: functional, cell-based

Nucleotide-binding oligomerization domain-containing protein 2, sequence (Q9HC29 whole entry, the tested form may be a part): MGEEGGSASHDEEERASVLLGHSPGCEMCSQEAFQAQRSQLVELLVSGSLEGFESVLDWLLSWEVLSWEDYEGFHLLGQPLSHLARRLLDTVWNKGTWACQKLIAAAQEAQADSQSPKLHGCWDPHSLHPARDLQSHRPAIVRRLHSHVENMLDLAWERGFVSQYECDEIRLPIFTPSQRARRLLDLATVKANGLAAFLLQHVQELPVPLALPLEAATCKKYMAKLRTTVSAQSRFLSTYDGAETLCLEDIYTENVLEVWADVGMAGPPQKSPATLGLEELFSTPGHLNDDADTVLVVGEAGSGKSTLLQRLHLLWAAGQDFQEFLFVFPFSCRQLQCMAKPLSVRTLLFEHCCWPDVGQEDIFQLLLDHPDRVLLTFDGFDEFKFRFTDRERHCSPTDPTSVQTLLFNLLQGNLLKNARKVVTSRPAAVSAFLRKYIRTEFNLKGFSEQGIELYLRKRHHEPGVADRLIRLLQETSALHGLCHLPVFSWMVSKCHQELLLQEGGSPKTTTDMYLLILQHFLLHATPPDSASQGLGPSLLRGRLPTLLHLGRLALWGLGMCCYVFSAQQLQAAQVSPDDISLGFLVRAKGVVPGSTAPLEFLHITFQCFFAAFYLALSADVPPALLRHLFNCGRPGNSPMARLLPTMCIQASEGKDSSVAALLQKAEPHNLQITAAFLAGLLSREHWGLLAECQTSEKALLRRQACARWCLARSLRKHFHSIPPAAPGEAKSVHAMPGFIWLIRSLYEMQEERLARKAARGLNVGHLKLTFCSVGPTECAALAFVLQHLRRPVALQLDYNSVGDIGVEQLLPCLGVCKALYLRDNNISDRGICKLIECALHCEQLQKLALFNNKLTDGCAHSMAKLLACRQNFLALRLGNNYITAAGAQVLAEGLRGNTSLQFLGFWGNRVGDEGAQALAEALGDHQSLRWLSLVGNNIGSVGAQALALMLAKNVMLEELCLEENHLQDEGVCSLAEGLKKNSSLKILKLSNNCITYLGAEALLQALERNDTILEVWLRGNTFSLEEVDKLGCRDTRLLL
Phospholipase A2, sequence (P04054 whole entry): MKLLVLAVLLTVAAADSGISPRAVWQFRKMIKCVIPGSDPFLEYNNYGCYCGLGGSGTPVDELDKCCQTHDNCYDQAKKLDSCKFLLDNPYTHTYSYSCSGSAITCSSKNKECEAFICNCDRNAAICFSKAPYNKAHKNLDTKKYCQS
Induced myeloid leukemia cell differentiation protein Mcl-1, sequence (Q07820 whole entry): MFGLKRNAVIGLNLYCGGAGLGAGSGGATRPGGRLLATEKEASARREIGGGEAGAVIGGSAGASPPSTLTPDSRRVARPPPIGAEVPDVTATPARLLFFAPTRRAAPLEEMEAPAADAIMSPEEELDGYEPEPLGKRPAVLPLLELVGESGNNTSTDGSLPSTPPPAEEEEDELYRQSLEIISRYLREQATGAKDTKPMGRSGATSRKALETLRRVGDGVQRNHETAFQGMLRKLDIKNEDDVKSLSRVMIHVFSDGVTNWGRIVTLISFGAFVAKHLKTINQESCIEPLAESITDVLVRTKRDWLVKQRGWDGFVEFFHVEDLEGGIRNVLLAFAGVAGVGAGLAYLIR

O=C(Nc1cc(S(=O)(=O)N2CCOCC2)ccc1N1CCCC1)c1ccc(Cl)cc1
AC50 (Escherichia coli): 25.2 µM (active)

Cc1nc(N)nc(N)c1CCCc1ccc(Cl)c(Cl)c1
EC50 [1]: 1.03 µM (active)
EC50 (BJ [2]): 1.36 µM (active)
CC50 [3]: 4.07 µM (active)
EC50 (BJ [4]): 17 µM (active)
EC50 (Streptococcus): 4.01 µM (active)
EC50 (BJ [5]): > 150 µM (not active)
EC50 [6]: 3.05 µM (active)
EC50 (BJ [7]): > 133 µM (inactive)

CCCCNC(=O)COC(=O)c1c2c(nc3ccccc13)/C(=C/c1cccs1)CC2
IC50 (CHO): > 49.7 µM (inactive)

Nc1nn(-c2ccccc2)c(N)c1N=Nc1ccc2c(c1)OCO2
IC50 (Cysteine protease ATG4B): 15.9 µM (active)
IC50 (Phospholipase A2): 10.4 µM (active)

O=[N+]([O-])c1ccc(/C=N/NC(=S)Nc2ccc(Cl)cc2Cl)s1
EC50 [8]: 0.651 µM (active)
EC50 [1]: 2.38 µM (active)
EC50 [9]: > 20 µM (inactive)
IC50 (HEK293 [10]): 17.3 µM (active)
IC50 (HEK293 [11]): 7.77 µM (inactive)
EC50 (HEK293 [12]): 6.09 µM (active)
EC50 (Streptococcus): 2.56 µM (active)
IC50 (HEK293 [13]): 11.4 µM (active)
IC50 (HEK293 [14]): > 20 µM (inactive)
IC50 [15]: 4.67 µM (active)

O=C(/C=C\c1ccco1)Nc1cc([N+](=O)[O-])ccc1F
EC50 (BJ [2]): 2.06 µM (active)
EC50 (BJ [4]): 1.44 µM (active)
EC50 (BJ [5]): 0.821 µM (active)
EC50 [6]: 1.17 µM (active)
EC50 (BJ [7]): 0.42 µM (active)

O=C(COC(=O)CN1C(=O)NC2(CCCC2)C1=O)Nc1ccccc1C(F)(F)F
IC50 [16]: > 67.5 µM (inactive)
IC50 (HEK293 [17]): > 67.5 µM (inactive)

O=C(CCc1ccccc1)NC(=S)Nc1ccccc1Br
IC50 [16]: > 67.5 µM (inactive)
IC50 (HEK293 [17]): > 67.5 µM (inactive)

Cc1[nH]n(-c2cccc(Cl)c2)c(=O)c1-c1ccc(Cl)cc1
IC50 [18]: 80 µM (active)
EC50 [9]: 12.8 µM (active)
IC50 (HEK293 [10]): > 20 µM (inactive)
CC50 [19]: 100 µM (active)
IC50 (HEK293 [11]): 9.97 µM (inactive)
EC50 (HEK293 [12]): 2.43 µM (active)
IC50 [20]: > 20 µM (inactive)
IC50 (HEK293 [13]): 14.2 µM (active)
IC50 (HEK293 [14]): > 20 µM (inactive)
IC50 [21]: 0.98 µM (active)
EC50 [22]: > 53 µM (inactive)

O=S(=O)(NCc1ccc2c(c1)OCO2)c1ccc(F)cc1
IC50 [16]: > 67.6 µM (inactive)
IC50 (HEK293 [17]): > 67.6 µM (inactive)

COc1ccc(-c2ccc(C#N)c(SCC(=O)Nc3sc4c(c3C#N)CCC4)n2)cc1OC
IC50 [23]: > 100 µM (active)
IC50 (Protein Tat): > 100 µM (active)
EC50 [24]: > 120 µM (not active)
IC50 (Cysteine protease ATG4B): 5.44 µM (active)
IC50 (Phospholipase A2): 4.06 µM (active)
EC50 [25]: 13.9 µM (active)
EC50 [26]: 11.1 µM (active)
